From US10029994B2, “Isoxazole hydroxamic acid compounds as LpxC inhibitors” (priority 2014, dated 2018)
Read-outs that look alike come from different tables or passages of the source.

Assays:
[1] = biological target: T1, P. aeruginosa LpxC (Pseudomonas aeruginosa, UniProt P47205); experiment: P. aeruginosa LpxC Inhibition Assay (LC-MS/MS); type: biochemical; settings: 1 nM P. aeruginosa LpxC, 30 min pre-incubation, 2 μM UDP-3-O-(R-3-hydroxydecanoyl)-GlcNAc, pH 7.5
T1 construct: made in house
T1 sequence (P47205 1-303): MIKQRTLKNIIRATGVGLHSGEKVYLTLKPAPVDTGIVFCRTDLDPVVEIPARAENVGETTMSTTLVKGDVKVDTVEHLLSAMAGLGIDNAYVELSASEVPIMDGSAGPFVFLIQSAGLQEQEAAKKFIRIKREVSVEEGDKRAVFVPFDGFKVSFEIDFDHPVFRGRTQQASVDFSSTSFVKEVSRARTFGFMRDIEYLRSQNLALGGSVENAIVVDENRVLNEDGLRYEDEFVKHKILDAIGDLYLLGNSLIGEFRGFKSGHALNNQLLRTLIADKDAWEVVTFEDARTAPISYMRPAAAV
Source text: P. aeruginosa LpxC Inhibition Assay
The P. aeruginosa LpxC protein is produced according to the general method of Hyland et al (Journal of Bacteriology 1997 179, 2029-2037: Cloning, expression and purification of UDP-3-O-acyl-GlcNAc deacetylase from Pseudomonas aeruginosa: a metalloamidase of the lipid A biosynthesis pathway). The LC-MS/MS method for quantitation of LpxC product was developed using an Agilent 1200 Capillary HPLC system coupled to an Applied Biosystems MDS Sciex 4000QTRAP mass spectrometer. Both instruments are controlled using the Applied Biosystems MDS Sciex Analyst software. LpxC reaction product (UDP-3-O—(R-3-hydroxyacyl)-glucosamine) was produced by hydrolysis of LpxC substrate catalyzed by P.a. LpxC and purified using reversed phase chromatography on a Phenomenex Luna C18(2) 4.6×50 mm column. An LpxC product calibration curve was generated to evaluate the sensitivity and dynamic range of the LC-MS/MS method. Briefly, compounds are pre-incubated with 1 nM P. aeruginosa LpxC for 30 min. at room temperature. Reactions are initiated by the addition of 2 μM UDP-3-O—(R-3-hydroxydecanoyl)-GlcNAc. Reactions are conducted in a 384-well plate with a total volume of 50 μL in each well containing 50 mM Sodium phosphate pH 7.5, 0.005% Trition X-100 for 20 min at room temperature. After quenching with 1.8% HOAc (5 μL of a 20% HOAc added to each well), reaction mixtures are analyzed using the LC-MS/MS method and peak areas are transformed into product concentration using a LpxC product calibration curve. Total activity (0% inhibition control) is obtained from reactions with no inhibitors and 100% inhibition control is the background using quenched samples before reaction starts. For IC50 determinations, peak areas are converted to percent inhibition in Microsoft Excel. Percent inhibition values are plotted vs. log compound concentration using XLfit. Data is fit to the four-parameter logistic equation using the non-linear regression algorithm in XLfit to return the IC50 and hill slope values.

[2] = tested on: P. A. PAO1 NB52019; experiment: MIC, broth microdilution (CLSI); type: cell-based, Pseudomonas aeruginosa; settings: for MIC: Pseudomonas aeruginosa, read-out: P. A. PAO1 NB52019 MIC
Method: (§1) Bacterial isolates were cultivated from −70° C. frozen stocks by two consecutive overnight passages at 35° C. in ambient air on 5% blood agar (Remel, Lenexa, Kans.). Quality control strain, P. aeruginosa ATCC 27853, A. baumannii ATCC19606 and E. coli ATCC 25922 are from the American Type Culture Collection (ATCC; Rockville, Md.) and PAO1 was received from Dr. K. Poole.
(§2) Minimal Inhibitory Concentrations (MICs) were determined by the broth microdilution method in accordance with Clinical and Laboratories Institute (CLSI) guidelines (CLSI M100-S25, Performance Standards for Antimicrobial Susceptibility Testing; Twenty-fifth Informational Supplement). In brief, fresh bacterial overnight cultures were resuspended in sterile saline, adjusted to a 0.5 McFarland turbidity standard and then diluted 2000-fold in cation adjusted Mueller-Hinton Broth II (MHB; Remel BBL) to yield a final inoculum of approximately 5×10^5 colony-forming units (CFU)/mL. Two-fold serial dilutions of compounds were prepared in 100% dimethyl sulfoxide (DMSO) at 100-fold the highest final assay concentration; the resulting dilution series of compounds were diluted 1:10 with sterile water. Ten μl of the drug dilution series in 10% DMSO was transferred to microtiter wells and 90 μl of bacterial suspension was inoculated into the wells. For testing the ability of compounds to potentiate the activity of known antibiotics, the assay was modified as follows; known antibiotics were added to the bacterial inoculum at 1.1-fold the final assay concentration indicated in Table A. All inoculated microdilution trays were incubated in ambient air at 35° C. for 20 hours. Following incubation, assay plates were read in a microtiter plate reader at 600 nm and visually inspected to confirm the MIC endpoint well with the OD value. The lowest concentration of the compound that prevented visible growth was recorded as the MIC. Performance of the assay was monitored by testing ciprofloxacin against the laboratory quality control strain in accordance with guidelines of the CLSI.

[3] = tested on: E. C. ATCC 25922; experiment: MIC, broth microdilution (CLSI); type: cell-based, Escherichia coli; settings: for MIC: Escherichia coli, ATCC25922, 20 h, read-out: E. C. ATCC 25922 MIC
Method: as §1, §2

[4] = tested on: E. C. ATCC 29522; experiment: MIC in the presence of sub-inhibitory rifampicin (potentiation/synergy); type: cell-based, Escherichia coli; settings: +2 μg/ml rifampicin (RIF); broth microdilution, 35° C., 20 hours
Method: as §1, §2

[5] = tested on: A. B. ATCC 19606; experiment: MIC, broth microdilution (CLSI); type: cell-based, Acinetobacter baumannii; settings: for MIC: Acinetobacter baumannii, read-out: A. B. ATCC 19606 MIC
Method: as §1, §2

[6] = tested on: A. B. ATCC 19606; experiment: MIC in the presence of sub-inhibitory rifampicin (potentiation/synergy); type: cell-based, Acinetobacter baumannii; settings: +2 μg/ml rifampicin (RIF); broth microdilution, 35° C., 20 hours
Method: as §1, §2

[7] = PAO1, broth microdilution, 35° C., 20 hours
[8] = broth microdilution, 35° C., 20 hours
[9] = ATCC19606, broth microdilution, 35° C., 20 hours

Row | Compound | IC50 [1] | MIC [2, 7] | MIC [3, 8] | E. C. ATCC 29522 (+2 μg/ml RIF) MIC [4] | MIC [5, 9] | A. B. ATCC 19606 (+2 μg/ml RIF) MIC [6] | P. A. PAO1 NB52019 MIC [2, 8] | E. C. ATCC 25922 MIC [3, 8] | A. B. ATCC 19606 MIC [5, 8] | MIC ([2]; PAO1, 20 h) | MIC [3] | MIC ([5]; ATCC19606, 20 h)
1 | C[C@@](CCc1cc(C#CCCCF)on1)(C(=O)NO)S(C)(=O)=O [Compound 1.10, (R)-4-(5-(5-fluoropent-1-yn-1-yl)isoxazol-3-yl)-N-hydroxy-2-methyl-2-(methylsulfonyl)butanamide] | < 1 nM | 0.5 µg/mL | 8 µg/mL | 0.25 µg/mL | > 64 µg/mL | 0.25 µg/mL | – | – | – | – | – | –
2 | C[C@@](CCc1cc(C#CC2CCC2)on1)(C(=O)NO)S(C)(=O)=O [Compound 1.2, (R)-4-(5-(cyclobutylethynyl)isoxazol-3-yl)-N-hydroxy-2-methyl-2-(methylsulfonyl)butanamide] | < 1 nM | 0.125 µg/mL | 2 µg/mL | ≤0.06 µg/mL | > 64 µg/mL | ≤0.06 µg/mL | – | – | – | – | – | –
3 | COCC1CC(C#Cc2cc(CC[C@](C)(C(=O)NO)S(C)(=O)=O)no2)C1 (single isomer, unassigned) [Compound 1.15a] | – | 2 µg/mL | 8 µg/mL | 0.25 µg/mL | > 64 µg/mL | 0.25 µg/mL | – | – | – | – | – | –
4 | C[C@@](CCc1cc(C#CCCC(F)F)on1)(C(=O)NO)S(C)(=O)=O [Compound 1.11, (R)-4-(5-(5,5-Difluoropent-1-yn-1-yl)isoxazol-3-yl)-N-hydroxy-2-methyl-2-(methylsulfonyl)butanamide] | 1 nM | 1 µg/mL | 32 µg/mL | 0.5 µg/mL | > 64 µg/mL | 1 µg/mL | – | – | – | – | – | –
5 | C[C@@](CCc1cc(C#CCCF)on1)(C(=O)NO)S(C)(=O)=O [Compound 1.9] | 3 nM | 1 µg/mL | 32 µg/mL | 0.125 µg/mL | > 64 µg/mL | 1 µg/mL | – | – | – | – | – | –
6 | C[C@@](CCc1cc(C#CC2CC(F)C2)on1)(C(=O)NO)S(C)(=O)=O (stereo partly drawn) [Compound 1.13, (R)-4-(5-((3-fluorocyclobutyl)ethynyl)isoxazol-3-yl)-N-hydroxy-2-methyl-2-(methylsulfonyl)butanamide] | – | 0.5 µg/mL | 16 µg/mL | 0.25 µg/mL | > 64 µg/mL | ≤0.06 µg/mL | – | – | – | – | – | –
7 | CCCC#Cc1cc(CC[C@](C)(C(=O)NO)S(C)(=O)=O)no1 [Compound 1.7, (R)—N-hydroxy-2-methyl-2-(methylsulfonyl)-4-(5-(pent-1-yn-1-yl)isoxazol-3-yl)butanamide] | < 1 nM | 0.25 µg/mL | 2 µg/mL | ≤0.06 µg/mL | > 64 µg/mL | 0.125 µg/mL | – | – | – | – | – | –
8 | Cc1cc([C@H](O)[C@](C)(NCc2cc(C#Cc3ccccc3)on2)C(=O)NO)no1 [Compound 3.3, (2S,3R)—N,3-dihydroxy-2-methyl-3-(5-methylisoxazol-3-yl)-2-(((5-(phenylethynyl)isoxazol-3-yl)methyl)amino)propanamide] | < 1 nM | 0.25 µg/mL | ≤ 0.06 µg/mL | 0.06 µg/mL | 64 µg/mL | ≤0.06 µg/mL | – | – | – | – | – | –
9 | C[C@@](CCc1cc(/C(F)=C\C2CC2)on1)(C(=O)NO)S(C)(=O)=O [Compound 4.5-2, (R,E)-4-(5-(2-cyclopropyl-1-fluorovinyl)isoxazol-3-yl)-N-hydroxy-2-methyl-2-(methylsulfonyl)butanamide] | – | 8 µg/mL | 64 µg/mL | 2 µg/mL | > 64 µg/mL | 16 µg/mL | – | – | – | – | – | –
10 | CO[C@H](CO)c1ccc(C#Cc2cc(CC[C@](C)(C(=O)NO)S(C)(=O)=O)no2)cc1 [Compound 2.6, (R)—N-hydroxy-4-(5-((4-((S)-2-hydroxy-1-methoxyethyl)phenyl)ethynyl)-isoxazol-3-yl)-2-methyl-2-(methylsulfonyl)butanamide] | < 1 nM | 0.25 µg/mL | 0.5 µg/mL | 0.125 µg/mL | > 64 µg/mL | 1 µg/mL | – | – | – | – | – | –
11 | C[C@@](CCc1cc(C#Cc2ccc([C@@H](O)CO)cc2)on1)(C(=O)NO)S(C)(=O)=O [Compound 2.8, (R)-4-(5-((4-((R)-1,2-dihydroxyethyl)phenyl)ethynyl)isoxazol-3-yl)-N-hydroxy-2-methyl-2-(methylsulfonyl)butanamide] | < 1 nM | 0.25 µg/mL | 1 µg/mL | 0.125 µg/mL | > 64 µg/mL | 1 µg/mL | – | – | – | – | – | –
12 | CC(C)(C)C#Cc1cc(CC[C@](C)(C(=O)NO)S(C)(=O)=O)no1 [Compound 1.3, (R)-4-(5-(3,3-dimethylbut-1-yn-1-yl)isoxazol-3-yl)-N-hydroxy-2-methyl-2-(methylsulfonyl)butanamide] | < 1 nM | 0.25 µg/mL | 8 µg/mL | 2 µg/mL | > 64 µg/mL | 0.25 µg/mL | – | – | – | – | – | –
13 | COCC1CC(C#Cc2cc(CC[C@](C)(C(=O)NO)S(C)(=O)=O)no2)C1 (single isomer, unassigned) [Compound 1.15b] | – | – | – | 0.25 µg/mL | – | 0.5 µg/mL | 2 µg/mL | 4 µg/mL | >64 µg/mL | – | – | –
14 | C/C=C(/C)c1cc(CC[C@](C)(C(=O)NO)S(C)(=O)=O)no1 [Compound 4.3-2, (R,Z)-4-(5-(but-2-en-2-yl)isoxazol-3-yl)-N-hydroxy-2-methyl-2-(methylsulfonyl)butanamide] | – | – | – | 0.5 µg/mL | – | 8 µg/mL | – | – | – | 2 µg/mL | 16 µg/mL | > 64 µg/mL
15 | C[C@@](CCc1cc(/C=C/C2CC2)on1)(C(=O)NO)S(C)(=O)=O [Compound 4.2, (R,E)-4-(5-(2-cyclopropylvinyl)isoxazol-3-yl)-N-hydroxy-2-methyl-2-(methylsulfonyl)butanamide] | – | 0.25 µg/mL | 8 µg/mL | 0.125 µg/mL | > 64 µg/mL | 0.5 µg/mL | – | – | – | – | – | –
